In ChEMBL document CHEMBL1123774, “Peptide quantitative structure-activity relationships, a multivariate approach” (J Med Chem, 1987):
Peptide text beside a SMILES is read from it.

Test: Bradykinin potentiating activity was determined as the activity index by PLS model

Row | Log RAI | SMILES
1 | -0.1 | C[C@H](N)C(=O)N[C@@H](C)C(=O)N[C@@H](C)C(=O)N[C@@H](C)C(=O)N[C@@H](C)C(=O)O
2 | 0.46 | C[C@H](N)C(=O)N[C@@H](C)C(=O)N[C@@H](Cc1ccc(O)cc1)C(=O)N[C@@H](C)C(=O)N[C@@H](C)C(=O)O
3 | 0.75 | C[C@H](N)C(=O)N[C@@H](C)C(=O)N[C@@H](Cc1c[nH]c2ccccc12)C(=O)N[C@@H](C)C(=O)N[C@@H](C)C(=O)O (H-AAWAA-OH)
4 | 1.3 | C[C@H](NC(=O)[C@H](Cc1c[nH]c2ccccc12)NC(=O)[C@H](CCCCN)NC(=O)[C@@H](N)CCC(=O)O)C(=O)N1CCC[C@H]1C(=O)O (H-EKWAP-OH)
5 | 0.3 | C[C@H](NC(=O)[C@H](C)NC(=O)[C@H](CCC(=O)O)NC(=O)[C@@H](N)Cc1ccccc1)C(=O)N[C@@H](CCCCN)C(=O)O (H-FEAAK-OH)
6 | 0.64 | NC(N)=NCCC[C@H](NC(=O)[C@H](Cc1ccccc1)NC(=O)[C@@H]1CCCN1C(=O)[C@H](CO)NC(=O)[C@@H](N)Cc1ccccc1)C(=O)O (H-FSPFR-OH)
7 | -0.52 | C[C@H](NC(=O)[C@H](C)NC(=O)[C@H](CCC(=O)O)NC(=O)CN)C(=O)N[C@@H](CCCCN)C(=O)O (H-GEAAK-OH)
8 | 0.4 | CC(C)C[C@H](N)C(=O)N[C@@H](CCC(=O)O)C(=O)N[C@@H](C)C(=O)N[C@@H](C)C(=O)N[C@@H](CCCCN)C(=O)O (H-LEAAK-OH)
9 | 0.9 | O=C(CNC(=O)[C@@H]1CCCN1)N[C@@H](Cc1ccccc1)C(=O)N[C@@H](CO)C(=O)N1CCC[C@H]1C(=O)O (H-PGFSP-OH)
10 | 1.98 | C[C@H](NC(=O)[C@H](Cc1c[nH]c2ccccc12)NC(=O)[C@H](CCCCN)NC(=O)[C@@H](N)CCCN=C(N)N)C(=O)N1CCC[C@H]1C(=O)O (H-RKWAP-OH)
11 | -0.1 | CC(C)[C@H](N)C(=O)N[C@@H](C)C(=O)N[C@@H](C)C(=O)N[C@@H](C)C(=O)N[C@@H](CCCCN)C(=O)O (H-VAAAK-OH)
12 | 0.23 | CC(C)[C@H](N)C(=O)N[C@@H](C)C(=O)N[C@@H](C)C(=O)N[C@@H](Cc1c[nH]c2ccccc12)C(=O)N[C@@H](CCCCN)C(=O)O (H-VAAWK-OH)
13 | 1.43 | CC(C)[C@H](N)C(=O)N[C@@H](C)C(=O)N[C@@H](Cc1c[nH]c2ccccc12)C(=O)N[C@@H](C)C(=O)N[C@@H](C)C(=O)O (H-VAWAA-OH)
14 | 1.45 | CC(C)[C@H](N)C(=O)N[C@@H](C)C(=O)N[C@@H](Cc1c[nH]c2ccccc12)C(=O)N[C@@H](C)C(=O)N[C@@H](CCCCN)C(=O)O (H-VAWAK-OH)
15 | 0.51 | CC(C)[C@H](N)C(=O)N[C@@H](CCC(=O)O)C(=O)N[C@@H](C)C(=O)N[C@@H](C)C(=O)N[C@@H](CCCCN)C(=O)O (H-VEAAK-OH)
16 | 0.18 | CC(C)[C@H](N)C(=O)N[C@@H](CCC(=O)O)C(=O)N[C@@H](C)C(=O)N[C@@H](C)C(=O)N1CCC[C@H]1C(=O)O (H-VEAAP-OH)
17 | 0.2 | CC(C)[C@H](N)C(=O)N[C@@H](CCC(=O)O)C(=O)N[C@@H](C)C(=O)N[C@@H](CO)C(=O)N[C@@H](CCCCN)C(=O)O (H-VEASK-OH)
18 | 1.57 | CC(C)[C@H](N)C(=O)N[C@@H](CCC(=O)O)C(=O)N[C@@H](Cc1ccccc1)C(=O)N[C@@H](C)C(=O)N[C@@H](CCCCN)C(=O)O (H-VEFAK-OH)
19 | -1 | CC(C)[C@H](N)C(=O)N[C@@H](CCC(=O)O)C(=O)NCC(=O)NCC(=O)N[C@@H](CCCCN)C(=O)O (H-VEGGK-OH)
20 | 1.53 | CC(C)[C@H](N)C(=O)N[C@@H](CCC(=O)O)C(=O)N[C@@H](Cc1c[nH]cn1)C(=O)N[C@@H](C)C(=O)N[C@@H](CCCCN)C(=O)O (H-VEHAK-OH)
21 | 0.59 | CC(C)C[C@H](NC(=O)[C@H](CCC(=O)O)NC(=O)[C@@H](N)C(C)C)C(=O)N[C@@H](C)C(=O)N[C@@H](CCCCN)C(=O)O (H-VELAK-OH)
22 | 0.28 | CC(C)[C@H](N)C(=O)N[C@@H](CCC(=O)O)C(=O)N[C@@H](CO)C(=O)N[C@@H](C)C(=O)N[C@@H](CCCCN)C(=O)O (H-VESAK-OH)
23 | 0 | CC(C)[C@H](N)C(=O)N[C@@H](CCC(=O)O)C(=O)N[C@@H](CO)C(=O)N[C@@H](CO)C(=O)N[C@@H](CCCCN)C(=O)O (H-VESSK-OH)
24 | 2.73 | CC(C)[C@H](N)C(=O)N[C@@H](CCC(=O)O)C(=O)N[C@@H](Cc1c[nH]c2ccccc12)C(=O)N[C@@H](C)C(=O)N[C@@H](CCCCN)C(=O)O (H-VEWAK-OH)
25 | 1.71 | CC(C)[C@H](N)C(=O)N[C@@H](CCC(=O)O)C(=O)N[C@@H](Cc1c[nH]c2ccccc12)C(=O)N[C@H](C(=O)N[C@@H](CCCCN)C(=O)O)C(C)C (H-VEWVK-OH)
26 | 0.11 | CC(C)[C@H](N)C(=O)N[C@@H](CCCCN)C(=O)N[C@@H](C)C(=O)N[C@@H](C)C(=O)N[C@@H](CCCCN)C(=O)O (H-VKAAK-OH)
27 | 1.71 | CC(C)[C@H](N)C(=O)N[C@@H](CCCCN)C(=O)N[C@@H](Cc1c[nH]c2ccccc12)C(=O)N[C@@H](C)C(=O)N[C@@H](C)C(=O)O (H-VKWAA-OH)
28 | 2.35 | CC(C)[C@H](N)C(=O)N[C@@H](CCCCN)C(=O)N[C@@H](Cc1c[nH]c2ccccc12)C(=O)N[C@@H](C)C(=O)N1CCC[C@H]1C(=O)O (H-VKWAP-OH)
29 | 0.04 | CC(C)[C@H](N)C(=O)N[C@@H](Cc1c[nH]c2ccccc12)C(=O)N[C@@H](C)C(=O)N[C@@H](C)C(=O)N[C@@H](CCCCN)C(=O)O (H-VWAAK-OH)
